From US10947215B2, “Heteroaryl compounds and their use as therapeutic drugs” (Dong-A Socio Holdings Co., Ltd., priority 2015, dated 2021)

These molecules were tested on Ba/F3-CDM cells (Ba/F3 transfected with CD8-MerTK) (assay: In cell MER kinase assay, Ba/F3-CDM cell proliferation without IL-3 (Celltiter-Glo, GI50)). Conditions: 48 hours, read-out: Cell growth inhibition (GI50).
Type: cell-based, murine
Description: In Cell MER Kinase Assay Using BaF3 Cellular System
To establish an in cell kinase assay for MerTK kinase, the IL-3 dependent Ba/F3 cells of murine lymphoid origin was transfected with CD8-MerTK. […] For a routine cellular assay, Ba/F3-CDM cells were seeded at 2,000 cells per well in 384-well cell culture plate containing DMEM/10% FBS culture media and incubated for 24 hours before addition of compounds pre-diluted in culture media. Following compound treatment, cells were further incubated for 48 hours and the proliferation was measured. To discriminate a Ba/F3 growth inhibition by a specific inhibition of MerTK kinase following compound treatment vs growth inhibition due to a non-specific unintended cytotoxicity of compounds, we routinely carried out control sets of Ba/F3 cells in parallel that grown in IL3-supplemented growth media. In the presence of IL-3, the proliferation of Ba/F3 is no longer dependent on the MerTK activity. Cell growth and proliferation was measured with Celltiter-Glo™ system (Promega, USA) according to the manufacturer's instruction. The half-maximal growth inhibitory concentration (GI50) value was calculated with Prism6.0 software (GraphPad, USA).

Row | GI50 [nM] | Compound
1 | < 100 | CN1CCN(Cc2ccc(-c3ccc(CO[C@H]4CCC[C@@H]4NC(=O)c4cc(-c5ccc(CN6CCOCC6)cc5)cnc4N)cc3)cc2)CC1 [Example 379, 2-amino-N-((1S,2S)-2-((4′-((4-methylpiperazin-1-yl)methyl)-[1,1′-biphenyl]-4-yl)methoxy)cyclopentyl)-5-(4-(morpholinomethyl)phenyl)nicotinamide]
2 | < 100 | CC(c1ccc(-c2ccc(CO[C@H]3CCC[C@@H]3NC(=O)c3cc(-c4cnn(C)c4)cnc3N)cc2)cc1)N1C[C@@H](C)N(C)[C@@H](C)C1 (stereo partly drawn) [Example 209, 2-amino-5-(1-methyl-1H-pyrazol-4-yl)-N-((1S,2S)-2-((4′-(1-((3S,5R)-3,4,5-trimethylpiperazin-1-yl)ethyl)-[1,1′-biphenyl]-4-yl)methoxy)-cyclopentyl)nicotinamide]
3 | > 1000 | Cn1cc(-c2cnc(N)c(C(=O)N[C@H]3CCC[C@@H]3OCc3ccc(C#CCCCCO)cc3)c2)cn1 [Example 251, 2-amino-N-((1S,2S)-2-((4-(6-hydroxyhex-1-yn-1-yl)benzyl)oxy)-cyclopentyl)-5-(1-methyl-1H-pyrazol-4-yl)nicotinamide]
4 | < 100 | Cc1cccc(-c2cnc(N)c(C(=O)N[C@H]3CCC[C@@H]3OCc3ccc(-c4ccc(CN5CCN(C)CC5)cc4)cc3)c2)c1 [Example 370, 2-amino-N-((1S,2S)-2-((4′-((4-methylpiperazin-1-yl)methyl)-[1,1′-biphenyl]-4-yl)methoxy)cyclopentyl)-5-(m-tolyl)nicotinamide]
5 | < 100 | C[C@@H](c1ccc(-c2ccc(CO[C@H]3CCC[C@@H]3NC(=O)c3cc(-c4ccc(F)nc4)cnc3N)cc2)cc1)N1CCN(C)CC1 [Example 222, 6-amino-6′-fluoro-N-((1S,2S)-2-((4′-((S)-1-(4-methylpiperazin-1-yl)ethyl)-[1,1′-biphenyl]-4-yl)methoxy)cyclopentyl)-[3,3′-bipyridine]-5-carboxamide]
6 | < 100 | CN(C)c1ccc(-c2ccc(CO[C@H]3CCC[C@@H]3NC(=O)c3cc(-c4cnn(C)c4)cnc3N)cc2)cc1 [Example 137, 2-amino-N-((1S,2S)-2-((4′-(dimethylamino)-[1,1′-biphenyl]-4-yl)methoxy)cyclopentyl)-5-(1-methyl-1H-pyrazol-4-yl)nicotinamide]
7 | > 1000 | Cn1cc(-c2cnc(N)c(C(=O)N[C@H]3CCC[C@@H]3OCc3ccc(C#CCCO)cc3)c2)cn1 [Example 249, 2-amino-N-((1S,2S)-2-((4-(4-hydroxybut-1-yn-1-yl)benzyl)oxy)-cyclopentyl)-5-(1-methyl-1H-pyrazol-4-yl)nicotinamide]
8 | < 100 | CN1CCN(Cc2ccc(-c3ccc(CO[C@H]4CCC[C@@H]4NC(=O)c4cc(-c5ccc(N6CCN(C)CC6)cc5)cnc4N)cc3)cc2)CC1 [Example 367, 2-amino-N-((1S,2S)-2-((4′-((4-methylpiperazin-1-yl)methyl)-[1,1′-biphenyl]-4-yl)methoxy)cyclopentyl)-5-(4-(4-methylpiperazin-1-yl)phenyl)-nicotinamide]
9 | < 100 | CN1CCN(Cc2ccc(-c3ccc(CO[C@H]4CCC[C@@H]4NC(=O)c4cc(-c5cc(F)nc(F)c5)cnc4N)cc3)cc2)CC1 [Example 384]
10 | > 1000 | CCc1cc(CO[C@H]2CNC[C@@H]2NC(=O)c2cc(-c3cnn(C4CCNCC4)c3)cnc2N)ccc1C [Example 412, 2-amino-N-((3S,4S)-4-((3-ethyl-4-methylbenzyl)oxy)pyrrolidin-3-yl)-5-(1-(piperidin-4-yl)-1H-pyrazol-4-yl)nicotinamide]
11 | < 100 | Cn1cc(-c2cnc(N)c(C(=O)N[C@H]3CCC[C@@H]3OCc3ccc(-c4ccc(CC5CCN(CC(N)=O)CC5)cc4)cc3)c2)cn1 [Example 242, 2-amino-N-((1S,2S)-2-((4′-((1-(2-amino-2-oxoethyl)piperidin-4-yl)methyl)-[1,1′-biphenyl]-4-yl)methoxy)cyclopentyl)-5-(1-methyl-1H-pyrazol-4-yl)-nicotinamide]
12 | < 100 | CN1CCC(n2cc(-c3cnc(N)c(C(=O)N[C@H]4CCC[C@@H]4OCc4ccc(-c5ccc(CN6CCN(C)CC6)cc5)cc4)c3)cn2)CC1 [Example 366, 2-amino-N-((1S,2S)-2-((4′-((4-methylpiperazin-1-yl)methyl)-[1,1′-biphenyl]-4-yl)methox)cyclopentyl)-5-(1-(1-methylpiperidin-4-yl)-1H-pyrazol-4-yl)nicotinamide]
13 | > 1000 | Cn1cc(-c2cnc(N)c(C(=O)N[C@H]3CNC[C@@H]3OCc3ccc(-c4ccc(CN5CCN(CCO)CC5)c(C(F)(F)F)c4)cc3)c2)cn1 [Example 444, 2-amino-N-((3S,4S)-4-((4′-((4-(2-hydroxyethyl)piperazin-1-vi)-methyl)-3′-(trifluoromethyl)-[1,1′-biphenyl]-4-yl)methoxy)pyrrolidin-3-yl)-5-(1-methyl-1H-pyrazol-4-yl)nicotinamide]
14 | < 100 | C[C@H](c1ccc(-c2ccc(CO[C@H]3CCC[C@@H]3NC(=O)c3cc(-c4cnn(C)c4)cnc3N)cc2)cc1)N1CCN(C)CC1 [Example 214, 2-amino-5-(1-methyl-1H-pyrazol-4-yl)-N-((1S,2S)-2-((4′-((R)-1-(4-methylpiperazin-1-yl)ethyl)-[1,1′-biphenyl]-4-yl)methoxy)cyclopentyl)nicotinamide]
15 | < 100 | CN1CCN(c2ccc(-c3ccc(CO[C@H]4CCC[C@@H]4NC(=O)c4cc(-c5cnn(C)c5)cnc4N)cc3)cc2)CC1 [Example 146, 2-amino-5-(1-methyl-1H-pyrazol-4-yl)-N-((1S,2S)-2-((4′-(4-methylpiperazin-1-yl)-[1,1′-biphenyl]-4-yl)methoxy)cyclopentyl)nicotinamide]
16 | > 1000 | Cn1cc(-c2cnc(N)c(C(=O)N[C@H]3CCC[C@@H]3OCc3ccc(-c4ccc(CN5CCC(O)CC5)cc4)cc3)c2)cn1 [Example 180, 2-amino-N-((1S,2S)-2-((4′-((4-hydroxypiperidin-1-yl)methyl)-[1,1′-biphenyl]-4-yl)methoxy)cyclopentyl)-5-(1-methyl-1H-pyrazol-4-yl)nicotinamide]
17 | > 1000 | CCc1cc(CO[C@H]2CNC[C@@H]2NC(=O)c2cc(-c3cccnc3)cnc2N)ccc1C [Example 396, 6-amino-N-((3S,4S)-4-((3-ethyl-4-methylbenzyl)oxy)pyrrolidin-3-yl)-[3,3′-bipyridine]-5-carboxamide]
18 | < 100 | CN1CCN(Cc2ccc(-c3ccc(CO[C@H]4CCC[C@@H]4NC(=O)c4cc(-c5ccc(N6CCOCC6)cc5)cnc4N)cc3)cc2)CC1 [Example 381, 2-amino-N-((1S,2S)-2-((4′-((4-methylpiperazin-1-yl)methyl)-[1,1′-biphenyl]-4-yl)methoxy)cyclopentyl)-5-(4-morpholinophenyl)nicotinamide]
19 | < 100 | CN1CCN(Cc2ccc(-c3ccc(CO[C@H]4CCC[C@@H]4NC(=O)c4cc(-c5cnn(C)c5)cnc4N)cc3)cc2F)CC1 [Example 195, 2-amino-N-((1S,2S)-2-((3′-fluoro-4′-((4-methylpiperazin-1-yl)-methyl)-[1,1′-biphenyl]-4-yl)methoxy)cyclopentyl)-5-(1-methyl-1H-pyrazol-4-yl)-nicotinamide]
20 | < 100 | CN1CCN(Cc2ccc(-c3ccc(CO[C@H]4COC[C@@H]4NC(=O)c4cc(-c5cnn(C)c5)cnc4N)cc3)cc2)CC1 [Example 448, 2-amino-5-(1-methyl-1H-pyrazol-4-yl)-N-((3S,4R)-4-((4′-((4-methylpiperazin-1-yl)methyl)-[1,1′-biphenyl]-4-yl)methoxy)tetrahydrofuran-3-yl)-nicotinamide]
21 | > 1000 | CCc1cc(CO[C@H]2CNC[C@@H]2NC(=O)c2cc(-c3ccc(C(N)=O)cc3)cnc2N)ccc1C [Example 391, 2-amino-5-(4-carbamoylphenyl)-N-((3S,4S)-4-((3-ethyl-4-methylbenzyl)oxy)pyrrolidin-3-yl)nicotinamide]
22 | < 100 | CN1CCN(C(C)(C)c2ccc(-c3ccc(CO[C@H]4COC[C@@H]4NC(=O)c4cc(-c5cnn(C)c5)cnc4N)cc3)cc2)CC1 [Example 450, 2-amino-5-(1-methyl-1H-pyrazol-4-yl)-N-((3S,4R)-4-((4′-(2-(4-methylpiperazin-1-yl)propan-2-yl)-[1,1′-biphenyl]-4-yl)methoxy)tetrahydrofuran-3-yl)nicotinamide]
23 | < 100 | CN1C[C@H](NC(=O)c2cc(-c3cnn(C)c3)cnc2N)[C@@H](OCc2ccc(-c3ccc(CN4CCN(CCO)CC4)cc3)cc2)C1 [Example 447, 2-amino-N-((3S,4S)-4-((4′-((4-(2-hydroxyethyl)piperazin-1-yl)-methyl)-[1,1′-biphenyl]-4-yl)methoxy)-1-methylpyrrolidin-3-yl)-5-(1-methyl-1H-pyrazol-4-yl)nicotinamide]
24 | < 100 | C[C@@H]1CN(Cc2ccc(-c3ccc(CO[C@H]4CCC[C@@H]4NC(=O)c4cc(-c5cnn(C)c5)cnc4N)cc3)cc2)CCN1C [Example 186, 2-amino-N-((1S,2S)-2-((4′-(((R)-3,4-dimethylpiperazin-1-yl)-methyl)-[1,1′-biphenyl]-4-yl)methoxy)cyclopentyl)-5-(1-methyl-1H-pyrazol-4-yl)-nicotinamide]
25 | > 1000 | CN1CCN(c2ccc(-c3ccc(CO[C@H]4CCC[C@@H]4NC(=O)c4cc(-c5cnn(C)c5)cnc4N)cc3)cn2)CC1 [Example 148, 2-amino-5-(1-methyl-1H-pyrazol-4-yl)-N-((1S,2S)-2-((4-(6-(4-methylpiperazin-1-yl)pyridin-3-yl)benzyl)oxy)cyclopentyl)nicotinamide]
